Laboratory results published in patent US20230279244A1, “RESIN COMPOSITION, COATED AND DRIED PRODUCT, MELT-KNEADED PRODUCT, OPTICAL FILTER, IMAGE DISPLAY DEVICE, SOLID-STATE IMAGING ELEMENT, SQUARYLIUM COMPOUND, AND METHOD FOR PRODUCING THE SAME” (FUJIFILM Corporation, priority 2020, published 2023).

Assays:
[1] = Measurement of maximal absorption wavelength of squarylium compound (Test Example 1); type: physicochemical; details: in chloroform, concentration 1×10^−6 mol/L, optical path length 10 mm
Procedure: The obtained squarylium compound B-12 was dissolved in chloroform (concentration: 1×10^−6 mol/L), and the maximum absorption wavelength λmax of the squarylium compound B-12 was measured using a cell having an optical path length of 10 mm and using a spectrophotometer UV-1800PC (manufactured by Shimadzu Corporation).

[2] = Evaluation of solubility of squarylium compound in toluene/cyclohexanone mixed solvent (Test Example 2); type: physicochemical; details: for Solubility: mixed solvent toluene/cyclohexanone=90/10 (vol %); for Solubility, measured dissolved amount: dissolved in 100 parts by mass of toluene/cyclohexanone=90/10 (vol %)
Procedure: Solubility of the obtained squarylium compound B-12 in a mixed solvent of toluene/cyclohexanone (toluene/cyclohexanone=90/10 (vol %)) was confirmed. Specifically, a dissolved amount (% by mass) of squarylium compound B-12 dissolved in 100 parts by mass of the mixed solvent of toluene/cyclohexanone was measured.
The solubility was evaluated by applying the obtained dissolved amount to the following standard.
—Evaluation Standard of Solubility—
B: 0.01% by mass or more and less than 0.1% by mass
C: less than 0.01% by mass

Row | SMILES | λmax (maximum absorption wavelength) [1] [nm] | Solubility [2] | Solubility, measured dissolved amount [2] | Solubility in an organic solvent (in words) ([2]; summary of Tables 1 to 5)
1 | CCCCC(CC)C(=O)NC1=CC(=[N+](/CCCC)c2ccc(C)cc2)/C=CC/1=C1\C(=O)C(c2ccc(N(CCCC)c3ccc(C)cc3)cc2NC(=O)C(CC)CCCC)=C1[O-] (stereo not shown) [A-1] | 688 | A (0.1% by mass or more) | – | –
2 | CCCCC(CC)CN(c1ccc(C)cc1)c1ccc(C2=C([O-])/C(=C3C=C/C(=[N+](\CC(CC)CCCC)c4ccc(C)cc4)C=C/3NC(=O)C(C)(C)CC)C2=O)c(NC(=O)C(C)(C)CC)c1 (stereo not shown) [A-2] | 690 | A (0.1% by mass or more) | – | –
3 | CCCCC(CC)CN(CC(CC)CCCC)c1ccc(C2=C([O-])/C(=C3/C=CC(=[N+](c4ccc(C)cc4)c4ccc(C)cc4)C=C3NC(=O)C(C)(C)CC)C2=O)c(NC(=O)C(C)(C)CC)c1 (stereo not shown) [A-4] | 699 | A (0.1% by mass or more) | – | –
4 | CCCCC(CC)CN(CC(CC)CCCC)c1ccc(C2=C([O-])/C(=C3C=C/C(=[N+](\CC(CC)CCCC)c4ccc(C)cc4)C=C/3NC(=O)C(C)(C)CC)C2=O)c(NC(=O)C(C)(C)CC)c1 (stereo not shown) [A-5] | 681 | A (0.1% by mass or more) | – | –
5 | CCCCc1ccc(N(CC(CC)CCCC)c2ccc(C3=C([O-])/C(=C4C=C/C(=[N+](\CC(CC)CCCC)c5ccc(CCCC)cc5)C=C/4NC(=O)C(C)(C)CC)C3=O)c(NC(=O)C(C)(C)CC)c2)cc1 (stereo not shown) [A-19] | 687 | A (0.1% by mass or more) | – | –
6 | CCCCc1ccc(N(CC(CC)CCCC)c2ccc(C3=C([O-])/C(=C4C=C/C(=[N+](\CC(CC)CCCC)c5ccc(CCCC)cc5)C=C/4NC(=O)c4c(C)cc(C)cc4C)C3=O)c(NC(=O)c3c(C)cc(C)cc3C)c2)cc1 (stereo not shown) [A-20] | 696 | A (0.1% by mass or more) | – | –
7 | CCCCc1ccc(N(CC(CC)CCCC)c2ccc(C3=C([O-])/C(=C4C=C/C(=[N+](\CC(CC)CCCC)c5ccc(CCCC)cc5)C=C/4NC(=O)C(F)(F)F)C3=O)c(NC(=O)C(F)(F)F)c2)cc1 (stereo not shown) [A-22] | 688 | A (0.1% by mass or more) | – | –
8 | CCCCC(CC)CN(c1ccc(C2=C([O-])/C(=C3C=C/C(=[N+](\CC(CC)CCCC)c4ccc(C)cc4C)C=C/3NC(=O)C(C)(C)CC)C2=O)c(NC(=O)C(C)(C)CC)c1)c1ccc(C)cc1C (stereo not shown) [A-26] | 688 | A (0.1% by mass or more) | – | –
9 | CCCCc1ccc(N(CC(CC)CCCC)c2ccc(C3=C([O-])/C(=C4C=C/C(=[N+](\CC(CC)CCCC)c5ccc(CCCC)cc5)C=C/4NC(=O)c4ccccc4)C3=O)c(NC(=O)c3ccccc3)c2)cc1 (stereo not shown) [A-28] | 695 | A (0.1% by mass or more) | – | –
10 | CCCCc1ccc(N(CC(CC)CCCC)c2ccc(C3=C([O-])/C(=C4C=C/C(=[N+](\CC(CC)CCCC)c5ccc(CCCC)cc5)C=C/4NC(=O)c4ccccc4C)C3=O)c(NC(=O)c3ccccc3C)c2)cc1 (stereo not shown) [A-29] | 695 | A (0.1% by mass or more) | – | –
11 | CCCCc1ccc(N(CC(CC)CCCC)c2ccc(C3=C([O-])/C(=C4C=C/C(=[N+](\CC(CC)CCCC)c5ccc(CCCC)cc5)C=C/4NC(=O)c4ccc5ccccc5c4)C3=O)c(NC(=O)c3ccc4ccccc4c3)c2)cc1 (stereo not shown) [A-30] | 697 | A (0.1% by mass or more) | – | –
12 | CCN(c1ccc(C)cc1)c1ccc(C2=C([O-])/C(=C3C=C/C(=[N+](\CC)c4ccc(C)cc4)C=C/3NC(=O)C(C)C)C2=O)c(NC(=O)C(C)C)c1 [C-4, reference compound] | 685 | B (0.01% by mass or more and less than 0.1% by mass) | – | exhibiting solubility in an organic solvent

Continued, in another order:

Row | λmax (maximum absorption wavelength) [1] [nm] | Solubility [2] | Solubility, measured dissolved amount [2] | SMILES | Solubility in an organic solvent (in words) ([2]; summary of Tables 1 to 5)
13 | 680 | C (less than 0.01% by mass) | (<0.005% by mass | CC(=O)NC1=CC(=[N+](/C)c2ccccc2)/C=CC/1=C1/C(=O)C(c2ccc(N(C)c3ccccc3)cc2NC(C)=O)=C1[O-] [C-1, reference compound] | –
14 | 737 | C (less than 0.01% by mass) | (<0.005% by mass | CC(=O)NC1=CC(=[N+](c2ccccc2)c2ccccc2)C=C/C1=C1/C(=O)C(c2ccc(N(c3ccccc3)c3ccccc3)cc2NC(C)=O)=C1[O-] [C-2, reference compound] | –
15 | 658 | C (less than 0.01% by mass) | (<0.005% by mass | Cc1ccc(N(C)c2ccc(C3=C([O-])/C(=C4C=C/C(=[N+](\C)c5ccc(C)cc5)C=C\4O)C3=O)c(O)c2)cc1 [C-3, reference compound] | –
16 | 681 | C (less than 0.01% by mass) | (<0.01% by mass | CCCCN(c1ccccc1)c1ccc(C2=C([O-])/C(=C3C=C/C(=[N+](\CCCC)c4ccccc4)C=C\3NC(C)=O)C2=O)c(NC(C)=O)c1 [C-6, reference compound] | –
